Where a name gives a salt, the structure may show the parent alone. Read-outs that look alike come from different tables or passages of the source.
Assays:
[1] = system: Phosphorylation of ERK1/2 in AsPC-1 cells; experiment: Phospho-ERK1/2 MSD Assay; format: cell-based, human; conditions: read-out: 2 h p-ERK (AsPC-1 cells), IC50
Method: Sixteen hours prior to compound treatment, AsPC-1 cells were seeded in 96-well cell culture plates at a density of 25,000 cells/well and incubated at 37° C., 5% CO2. A compound dose-response titration was diluted in growth media, added to appropriate wells of a cell culture plate, and then incubated at 37° C., 5% CO2 for 2 hours. […] Phosphorylation of ERK1/2 in compound-treated lysates was assayed using Phospho-ERK 1/2 Whole Cell Lysate kits (Meso Scale Discovery K151DWD) according to the manufacturer's protocol. Assay plates were read on a Meso Scale Discovery Sector Imager 6000, and data were analyzed using a 4-parameter logistic model to calculate IC50 values.

[2] = target: His-tagged KRAS G12D protein (Homo sapiens, UniProt P01116, G12D); experiment: KRAS G12D TR-FRET Assay; format: binding
How it was run: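 GDP-loaded His-KRAS G12D (20 nM in HEPES pH 7.4, MgCl2, NaCl, BSA, Tween-20, 10 μM GDP) preincubated with compound 30 min at room temperature, then 20 nM biotinylated KRPep-2d peptide added for 1 h. TR-FRET detection used Eu anti-His and streptavidin-d2, read after 1 h.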

[3] = target: GDP-bound KRAS protein (aa 1-169), containing both G12D and C118A amino acid substitutions (Homo sapiens, UniProt P01116, C118A/G12D); experiment: KRAS G12D Coupled Nucleotide Exchange Assay; format: biochemical
Method: KRAS G12D Coupled Nucleotide Exchange Assay
The assay plates were then read on a PerkinElmer En Vision Multilabel Reader, using AlphaScreen® technology, and data were analyzed using a 4-parameter logistic model to calculate IC50 values.

AsPC-1 cells = experiment: AsPC-1 CTG Assay (CellTiter-Glo cell viability, 72 h); format: cell-based, human; conditions: Homo sapiens, ASPC1, 72 h, AsPC-1 cells, 72 h, read-out: G12D/C/V Cell Proliferation CTG (72 h) AsPC-1
Method: AsPC-1 and SW620 CTG Assay Protocols
Serially-diluted compound or DMSO was added to the cells, and plates were incubated at 37° C., 5% CO2 for 72 h. Cell viability was measured using a CellTiter-Glo® Luminescent Cell Viability Assay kit (Promega) according to the manufacturer's protocol. The luminescence signal of treated samples was normalized to DMSO control, and data were analyzed using a 4-parameter logistic model to calculate IC50 values.

[4] = Homo sapiens, ASPC1, 2 h, AsPC-1 cells, 2 h compound treatment
[5] = 2 hours compound pre-incubation, SOS-mediated nucleotide exchange
[6] = read-out: KRAS G12D Binding IC50
[7] = Homo sapiens, ASPC1, 2 h, AsPC-1 cells, 2 h
[8] = TR-FRET, read-out: KRAS G12D Binding IC50

Compound	IC50 ([2]; TR-FRET binding)	IC50 [3, 5]	other results
O=C1CCCCc2c(Cl)cc3[nH]ncc3c2-c2ncc3c(nc(OC[C@@]45CCCN4C[C@H](F)C5)nc3c2F)N2CCC3CCN1[C@H]3C2 (mixture of isomers) [Example 60]	13 nM	6 nM	IC50 [1, 4]: 12 nM
O=C1OCCCc2c(Cl)cc3[nH]ncc3c2-c2ncc3c(nc(OC[C@@]45CCCN4C[C@H](F)C5)nc3c2F)N2CCC[C@]3(C2)C[C@H](C3)O1 [Example 323, (1R,3S)-11-chloro-33-fluoro-25-(((2R,7aS)-2-fluorotetrahydro-1H-pyrrolo[1,2-a]pyrrol-7a(5H)-yl)methoxy)-4,6-dioxa-14,15,20,24,26,28-hexaazaheptacyclo[26.3.1.1~1,3~.1~19,23~.0~10,18~.0~13,17~.0~22,27~]tetratriaconta-10,12,15,17,19(33),20,22,24,26-nonaen-5-one]			IC50 [1, 4]: 30.5 nM; IC50 (AsPC-1 cells; first value of cell): 318 nM
O[C@@H]1C[C@H]2COCCCCc3c(Cl)cc4[nH]ncc4c3-c3ncc4c(nc(OC[C@@]56CCCN5C[C@H](F)C6)nc4c3F)N(C1)C2 (mixture of isomers) [Example 408, 2,2,2-trifluoroacetate salt]			IC50 [1]: 52.4 nM; IC50 [2, 6]: 24 nM; IC50 [3]: 18 nM
Cc1cc2[nH]ncc2c2c1CCCCCCC1(O)CCCN(C1)c1nc(OC[C@@]34CCCN3C[C@H](F)C4)nc3c(F)c-2ncc13 (mixture of isomers) [Example 44]	160 nM	266 nM	
O[C@H]1C[C@@H]2CN(C1)c1nc(OC[C@@]34CCCN3C[C@H](F)C4)nc3c(F)c(ncc13)-c1c(c(Cl)cc3[nH]ncc13)CCCc1nc2no1 (racemic) [Example 377, (rac-18R,20S)-9-chloro-31-fluoro-25-(((2R,7a.S)-2-fluorotetrahydro-1H-pyrrolo[1,2-a]pyrrol-7a(5H)-yl)methoxy)-15-oxa-5,6,16,22,24,26,30,33-octaazaheptacyclo[25.3.1.1~14,17~.1~18,22~.0~2,10~0~3.7~.0~23,28~]tritriaconta-1(31),2,4,7,9,14(33),16,23,25,27,29-undecaen-20-ol]			IC50 [1, 7]: 9.9 nM; IC50 [2, 8]: 5 nM; IC50 (AsPC-1 cells; first value of the cell): 125 nM
Cc1cc2[nH]ncc2c2c1CCCOC(=O)CC1CCCN(C1)c1nc(OC[C@@]34CCCN3C[C@H](F)C4)nc3c(F)c-2ncc13 (stereo partly shown) [Example 39]			IC50 [1, 4]: 16 nM; IC50 (AsPC-1 cells; first value of cell): 191 nM
O=C1OCCc2c(Cl)cc3[nH]ncc3c2-c2ncc3c(nc(OC[C@@]45CCCN4C[C@H](F)C5)nc3c2F)N2CCC[C@]3(C[C@@H](CO3)O1)C2 (single isomer, unassigned) [Example 315]	3 nM	2 nM	
O=C1OCCCc2c(Cl)cc3[nH]ncc3c2-c2ncc3c(nc(OC[C@H]4CC[C@@H]5COCCN54)nc3c2F)N2CCOC[C@H](C2)O1 [Example 185, (26S)-18-chloro-32-fluoro-4-((6R,8aR)-hexahydro-1H-pyrrolo[2,1-c][1,4]oxazin-6-ylmethoxy)-23,25,28-trioxa-1,3,5,9,14,15-hexaazahexacyclo[24.4.1.1~6,10~.0~2,7~.0~11,19~.0~12,16~]dotriaconta-2,4,6,8,10(32),11,13,16,18-nonaen-24-one]	6 nM	5 nM	
O=C1OCCc2c(Cl)cc3[nH]ncc3c2-c2ncc3c(nc(OC[C@@]45CCCN4C[C@H](F)C5)nc3c2F)N2CCC[C@@]3(C[C@H](CO3)O1)C2 (single isomer, unassigned) [Example 314]	21 nM	11 nM	
O=C1OCCCc2c(Cl)cccc2-c2ncc3c(nc(OC[C@@]45CCCN4C[C@H](F)C5)nc3c2F)N2CCOC[C@H](C2)O1 [Example 186, (23S)-15-chloro-29-fluoro-4-(((2R,7aS)-2-fluorotetrahydro-1H-pyrrolo[1,2-a]pyrrol-7a(5H)-yl)methoxy)-20,22,25-trioxa-1,3,5,9-tetraazapentacyclo[21.4.1.1~6,10~.0~2,7~.0~11,16~]nonacosa-2,4,6,8,10(29),11,13,15-octaen-21-one]	12 nM		IC50 [1, 4]: 200 nM; IC50 (AsPC-1 cells; first value of cell): 1950 nM
CC12COCCN(C1)c1nc(OC[C@@]34CCCN3C[C@H](F)C4)nc3cc(nnc13)-c1c(c(Cl)cc3[nH]ncc13)CCCOC(=O)O2 (single isomer, unassigned) [Example 362]	8 nM	5 nM	
O=C1OCCc2c(Cl)cc3[nH]ncc3c2-c2ncc3c(nc(OC[C@@]45CCCN4C[C@H](F)C5)nc3c2F)N2CCC[C@]3(C2)C[C@H](C3)O1 [Example 333, (1R,3S)-10-chloro-32-fluoro-24-(((2R,7aS)-2-fluorotetrahydro-1H-pyrrolo[1,2-a]pyrrol-7a(5H)-yl)methoxy)-4,6-dioxa-13,14,19,23,25,27-hexaazaheptacyclo[25.3.1.1~1,3~.1~18,22~.0~9,17~.0~12,16~.0~21,26~]tritriaconta-9,11,14,16,18(32),19,21,23,25-nonaen-5-one]	314 nM	127 nM	
(17R,18R)-9-chloro-31-fluoro-25-(((2R,7aS)-2-fluorotetrahydro-1H-pyrrolo[1,2-α]pyrrol-7a(5H)-yl)methoxy)-19,33-dioxa-5,6,15,22,24,26,30-heptaazaheptacyclo[25.3.1.1~13,16~.1~18,22~.0~2,10~.0~3,7~.0~23,28~]tritriaconta-1(31),2,4,7,9,13,15,23,25,27,29-undecaen-17-ol [Example 395]		198 nM	IC50 [2, 8]: 1170 nM
O=C1N[C@@H]2C[C@H](O)CN(C2)c2nc(OC[C@@]34CCCN3C[C@H](F)C4)nc3c(F)c(ncc23)-c2c(c(Cl)cc3[nH]ncc23)CCCO1 (single isomer, unassigned) [Example 284]	5 nM	2 nM	
O=C1CCCc2c(Cl)cc3[nH]ncc3c2-c2ncc3c(nc(OC[C@@]45CCCN4C[C@H](F)C5)nc3c2F)N2CCCC(CC1)C2 (mixture of isomers) [Example 236]	55 nM	19 nM	IC50 [1, 4]: 950 nM
O[C@H]1C[C@@H]2CN(C1)c1nc(OC[C@@]34CCCN3C[C@H](F)C4)nc3c(F)c(ncc13)-c1c(c(Cl)cc3[nH]ncc13)CCCc1nc2no1 [Example 378, (18R,20S)-9-chloro-31-fluoro-25-(((2R,7aS)~2-fluorotetrahydro-1H-pyrrolo[1,2-α]pyrrol-7a(5H)-yl)methoxy)-15-oxa-5,6,16,22,24,26,30,33-octaazaheptacyclo[25.3.1.1~14,17~.1~18,22~.0~2,10~0~3,7~.0~23,28~]tritriaconta-1(31),2,4,7,9,14(33),16,23,25,27,29-undecaen-20-ol]			IC50 [1, 7]: 47.7 nM; IC50 (AsPC-1 cells; first value of the cell): 782 nM
CN1C(=O)OCCCc2c(Cl)cc3[nH]ncc3c2-c2ncc3c(nc(OC[C@@]45CCCN4C[C@H](F)C5)nc3c2F)N2C[C@H](O)C[C@H]1C2 (single isomer, unassigned) [Example 287]	1230 nM	376 nM	
CC12COCCN(C1)c1nc(OC[C@@]34CCCN3C[C@H](F)C4)nc3cc(nnc13)-c1c(c(Cl)cc3[nH]ncc13)CCCOC(=O)O2 (single isomer, unassigned) [Example 363]	20200 nM	5630 nM	
Cc1cc2[nH]ncc2c2c1CCCCC(=O)O[C@@H]1CCCN(C1)c1nc(OC[C@@]34CCCN3C[C@H](F)C4)nc3c(F)c-2ncc13 [Example 31, (17R)-30-Fluoro-24-(((2R,7aS)-2-fluorotetrahydro-1H-pyrrolo[1,2-a]pyrrol-7a(5H)-yl)methoxy)-9-methyl-16-oxa-5,6,21,23,25,29-hexaazahexacyclo[24.3.1.1˜17,21˜.0˜2,10˜.0˜3,7˜.0˜22,27˜]hentriaconta-1(30),2,4,7,9,22,24,26,28-nonaen-15-one bis(2,2,2-trifluoroacetate)]			IC50 [2, 6]: 7 nM; IC50 [3]: 5 nM
(185)-9-chloro-31-fluoro-25-(((2R,7a.S)-2-fluorotetrahydro-LH-pyrrolo[1,2-α]pyrrol-7a(5H)-yl)methoxy)-15-oxa-5,6,22,24,26,30,33-heptaazaheptacyclo[25.3.1.1~13,16~1~18,22~0~2,10~.0~3,7~.0~23,28~]tritriaconta-1(31),2,4,7,9,13,16(33),23,25,27,29-undecaene [Example 388]			IC50 [1]: 264 nM; IC50 [2, 6]: 13 nM; IC50 [3]: 5 nM
